Test results from patent US5239110A, “Phenylcyclohexanol derivatives as agents for treating CNS disorders” (Sterling Winthrop, Inc., priority 1992, dated 1993).

Tested on: sigma receptors
Assay: sigma receptor binding, [3H]di(2-tolyl)guanidine (DTG) assay
Set-up: species or system guinea pig (male Hartley), brain tissue
Conditions: [3H]DTG approx. 4 nM, 25° C., 90 min, guinea pig brain membranes; for Ki: pH 7.4
Protocol: Brain tissue was prepared from male Hartley guinea pigs (Hazelton Labs, Denver, PA) which were anesthetized with CO2 and sacrificed by decapitation. All animal care and use procedures were in accord with the "Guide for the Care and Use of Laboratory Animals" (NIH Publ. No. 86-23, 20 1985). Homogenization was performed in 10 volumes (wt/vol) of 0.32 M sucrose with a Brinkmann Polytron at setting 5, 30 sec. The homogenate was centrifuged at 900×g for 10 min at 4° C., and the supernatant was collected and centrifuged at 22,000×g for 20 min at 4° C. The pellet was resuspended in 10 volumes of Tris-HCl buffer (50 mM, pH 7.4), incubated at 37° C. for 30 min and centrifuged at 22,000×g for 20 min at 4° C. Following this, the pellet was resuspended in Tris buffer and frozen in 5-10 mL aliquots corresponding to a tissue concentration of 100 mg/mL at -70° C. Binding characteristics of the membranes were stable for at least one month when stored at -70° C.
On the day of the assay, membrane aliquots were thawed, resuspended in fresh Tris buffer and stored on ice until use. Each assay tube contained 100 μL of [3H](+)pentazocine at a final concentration of approximately 0.5 nM, [3H]di(2-tolyl)guanidine (DTG) at a final concentration of approximately 4 nM, 100 μL of various concentrations of the compounds of interest, 500 μL of the tissue suspension and 300 μL of buffer to a final assay volume of 1 mL and a final tissue concentration of approximately 8 mg/tube, corresponding to approximately 0.15 mg protein/tube. Nonspecific binding was defined by addition of a final concentration of 1 μM haloperidol to blank tubes for [^3 H]+pentazocine assay or by addition of a final concentration of 10 μM haloperidol to blank tubes for [^3 H]DTG assay. All tubes were incubated at 37° C. for 150 minutes ([^3 H]+pentazocine) or at 25° C. for 90 min ([3H]DTG) before termination of the reaction by filtration over Whatman GF/B glass fiber filters that were presoaked in a solution of 0.5% polyethyleneimine for at least 1 hr prior to use. Filters were washed with three 4 mL volumes of cold Tris-HCl buffer.
Following addition of scintillation cocktail, samples were allowed to equilibrate for at least 4 hr. The amount of bound radioactivity was determined by liquid scintillation spectrometry using a Beckman LS 5000 TA liquid scintillation counter with an efficiency for tritium of approximately 60%.
Data obtained on the compounds in the di(2-tolyl)guanidine (DTG) and d-pentazocine (+pent) assays, expressed as a Ki value in nM or % inhibition at 10 nM, are as follows: […]

With `CN(C)C1CCC(O)(c2ccccc2)CC1` (stereo not shown) [Example 1, 4-(Dimethylamino)-1-phenylcyclohexanol] the “DTG % inhib (10 nM)” value (at 10 nM) was 61%.
Work on `CC(=O)O[C@]1(c2ccccc2)CC[C@H](N(C)C)CC1` [Example 2, cis-4-(dimethylamino)-1-phenylcyclohexylacetate] yielded a Ki of 5 µM.
In the case of `CCC(=O)O[C@]1(c2ccccc2)CC[C@H](N(C)C)CC1` [Example 3, cis-4-(dimethylamino)-1-phenylcyclohexyl propionate], the Ki is reported as 0.288 µM.
With `CCC(=O)O[C@]1(c2ccccc2)CC[C@@H](N(C)C)CC1` [Example 4, trans-4(dimethylamino)-1-phenylcyclohexyl propionate] the Ki was 4.08 µM.
